This note sets out measurements from US6479460B1, “Synthetic peptides and pseudopeptides having osteogenic activity and pharmaceutical compositions containing the same” (Yissum Research Development Company of the Hebrew …, priority 1996, dated 2002).

The subject of one assay is ovariectomized mice. Nature of the assay: Osteogenic effect of OGP analogs in ovariectomized mice. The assay is classed as in vivo, C57B1/6 mice. The note with it: OVX mice, subcutaneous daily for six weeks, proximal tibial metaphysis, FIG. 5. The protocol: Thirty two female C57B1/6 mice weighing 25 gm underwent conventional bilateral ovariectomy (OVX). Additional eight control animals were subjected to sham OVX: the anterior abdominal wall was opened and the ovaries exposed but left intact. All animals were left untreated for 30 days. The OVX animals were then divided into four groups each consisting of eight mice. All animals were injected subcutaneously in the nape daily for six weeks with the following solutions: One group was given OGP(1-14) (SEQ ID NO: 1), 30 ng/day/mouse. A second group received OGP(10-14) (SEQ ID NO: 61), 10 ng/day/mouse. A third group was given desamino[Tyr^10]OGP(10-14) (SEQ ID NO: 4). All compounds were dissolved in phosphate buffered saline (PBS). An additional control OVX group was given the PBS solvent only. One day after termination of treatment the animals were killed and the tibial bones separated, fixed in phosphate buffered formalin and subjected to conventional decalcified histological processing. Sections through the midsagital region of the tibia were stained with Masson trichrome. Bone volume was determined in the secondary spongiosa of the proximal metaphysis in two sections 200-300 μm apart from each other in one tibia from each animal using an automated computerized image analyzer. The value for each animal was the mean reading from the two sections.

A further assay deals with ovariectomized rats. Nature of the assay: Number of bone marrow derived osteoblastic colonies from ovariectomized rats. The class given is in vivo, Sabra rats. The note with it: OVX rats, 100 ng/day/rat subcutaneous daily for eight weeks, FIG. 6. How it is done: Twenty five female Sabra rats weighing 250 g each were subjected to bilateral ovariectomy (OVX). Additional five control animals underwent sham OVX. All animals were left untreated for 30 days. Then the OVX animals were divided into five groups, each consisting of five rats. All animals were injected subcutaneously in the nape daily for eight weeks with following solutions: One group was given to OGP(10-14) (SEQ ID NO: 61), 100 ng/day/rat. A second group was given desamino[Tyr^10]OGP(10-14) (SEQ ID NO: 4), 100 ng/day/rat. A third group was given c(Tyr-Gly-Phe-Gly-Gly) (SEQ ID NO: 35), 100 ng/day/rat. The fourth group was given retro OGP ([…] (SEQ ID NO: 60), 300 ng/day/rat. All compounds were dissolved in PBS. An additional control OVX group was given the PBS solvent only. After termination of treatment the animals were killed and the femoral and tibial bone marrow from both posterior limbs was pooled and transferred to alpha minimal essential medium (αMEM). Bone marrow cell cultures were set in 35 mm dishes, 10 dishes per animal, as described previously [Rickard, D. J., et al (1994) Biology, 161:218]. The total number of fibroblastic colonies (CFU-f) formed was determined after three weeks in culture. Immediately after, the CFU-f cultures were stained for alkaline phosphates and co-stained for mineral with alizarin-red-S. The alizarin-red-S positive colonies were considered osteoblastic. Their frequency was expressed as their percentage of the total numbers of colonies. The value for each animal was calculated as the mean percentage obtained in the 10 dishes.

The test system of assay [1] is osteoblastic MC3T3 E1 and fibroblastic NIH 3T3 cells. The assay is described as follows: Proliferation assay, text statements not split by cell line. The assay is classed as cell-based. The conditions noted are these: summary of Table 1. How it is done: The effect of OGP analogs on osteoblastic MC3T3 E1 and fibroblastic NIH 3T3 cell proliferation was measured as before [Bab, I., et al (1992) EMBO J. 11:1867]. Some of the analogs were subjected to a dose response analysis. Otherwise the analog concentration was 10^−13M and 10^−11M in the MC3T3 E1 and NIH3T3 cell cultures, respectively. The mean cell number in triplicate culture wells was expressed as percent of a positive control triplicate dosed with OGP(1-14) (SEQ ID NO: 1). Experiments testing one dose per cell line were repeated at least four times and the activity of individual analogs expressed as the mean of results and 95% confidence limit obtained in these repetitive experiments.

Assay [2] relates to osteoblastic MC3T3 E1 cells. Nature of the assay: Proliferation assay, osteoblastic MC3T3 E1 cells. The assay is classed as cell-based. The note with it: analog concentration 10^−13M; mean cell number relative to positive control OGP(1-14) = 1.00. The source says: (§1) Some of the analogs were subjected to a dose response analysis.
Assay [3] concerns fibroblastic NIH 3T3 cells. The assay is described as follows: Proliferation assay, fibroblastic NIH 3T3 cells. The assay is classed as cell-based. The note with it: analog concentration 10^−11M; mean cell number relative to positive control OGP(1-14) = 1.00.
Description: as §1

Entries after “also recorded” stand apart in the source; their conditions may differ. Where no end group is shown, it is not given here. [ ]: non-standard residue; d: D form. The star is where a group is joined. Desaminotyrosyl = O=C(CCc1ccc(O)cc1)*

As to “desamino Tyr-Gly-Phe-Gly-Gly ([Desaminotyrosyl]GFGG) [desamino[Tyr^10]OGP(10-14)]”, the “reversal of trabecular bone loss (in words)” value in the assay on ovariectomized mice is reported as “either similar or superior to the parent oligopeptides; also recorded: either similar or superior to those of OGP(1-14)”. In addition, the “reversal of reduction in osteoprogenitor cells / osteoblastic colonies (in words)” value in the assay on ovariectomized rats is given as “either similar or superior to the parent oligopeptides; also recorded: either similar or superior to those of OGP(1-14)”. Also, the “retention of OGP-like activity” value in assay [1] is “approximately 70%”. For the same substance, the “Relative in vitro potency (95% confidence limit) MC3T3 E1 cells” value in assay [2] is given as 0.77. In assay [3], the “Relative in vitro potency (95% confidence limit) NIH 3T3 cells” value is given as 0.66.
